The test system of assay [1] is Staphylococcus aureus ATCC 25923. Put plainly: Antibacterial activity, disk diffusion Bauer-Kirby method. Particulars: Müller-Hinton medium pH 7.2-7.4. It is filed as cell-based. As for the experimental part:
(§1) The antimicrobial activities were assessed on a large set of Gram-positive and Gram-negative bacterial strains. […] Peptide antibacterial activity was tested against Gram-positive and Gram-negative bacteria by the standardized disk diffusion Bauer-Kirby method using the Müller-Hinton culture medium at pH 7.2-7.4 as recommended by the National Committee for Clinical Laboratory Standards. The antibacterial activity assay was performed in a similar way to that described in reference. The activity of peptides was tested against clinical isolates of bacteria and reference bacterial strains: Staphylococcus aureus American Type Culture Collection strains (ATCC) 25923, Streptococcus pyogenes ATCC 19615, Escherichia coli ATCC 25922, Pseudomonas aeruginosa ATCC 27853, Klebsiella pneumoniae ATCC 13883, Salmonella entereditis 13076, and Proteus mirabilis ATCC 10975. The well-known antibiotics bacitracin and tetracyclin (10 μg/disk) were used as controls.

Assay [2] concerns Streptococcus pyogenes ATCC 19615. The description is as above. It is filed as cell-based. Particulars: Müller-Hinton medium pH 7.2-7.4. As to the method: as §1

Turning to [Leu^11-OMe] trichogin GA IV, the “antimicrobial activity on Staphylococcus aureus” value in assay [1] was “active”. The “antimicrobial activity on Streptococcus pyrogenes” value in assay [2] is reported as “active”.

The values are drawn from article PMC3458734, “Partial thioamide scan on the lipopeptaibiotic trichogin GA IV. Effects on folding and bioactivity” (Beilstein Journal of Organic Chemistry, 2012).
